{
  "source": "patent US8029770B2",
  "about": "(Rutgers, The State University, priority 2003, dated 2011)",
  "test_system": "apoptotic sunburn cells in the epidermis of SKH-1 mice",
  "assay": "UVB-induced apoptotic sunburn cells in the epidermis of SKH-1 mice after topical application",
  "type": "in vivo, mouse",
  "conditions": "for activity in stimulating UVB-induced apoptosis in mouse skin, compared with caffeine: first study of compounds structurally related to caffeine, given after UVB; for Percent Apoptotic Sunburn Cells: 6.2 μmole in 100 μL acetone right after UVB 30 mJ/cm^2 and at 30 and 120 min, 6 h after UVB; for activity in stimulating UVB-induced apoptosis, compared with caffeine: similar study, acetone:water (90:10) as vehicle (Table 1)",
  "experimental": "Chemicals and Animals. […] Female SKH-1 hairless mice (6 to 7 weeks old) were purchased from the Charles River Breeding Laboratories, and the animals were kept in an animal facility for at least one week before use at 7 to 8 weeks of age. Mice were given water and PURINA® Laboratory CHOW® 5001 diet from Ralston-Purina (St. […] For the analysis conducted herein, 5 mice were used per group. Treatment of Mice with UVB. […] The radiation was further calibrated with a model IL-1700 research radiometer/photometer (International Light, Newburyport, Mass.). Measurement of apoptotic sunburn cells. Identification of apoptoic sunburn cells was based morphologically on cell shrinkage and nuclear condensation due to fragmentation of the cells. […] Six hours after UVB, the animals were sacrificed and apoptotic sunburn cells in the epidermis were determined morphologically. […] Six hours after UVB, the animals were sacrificed and apoptotic sunburn cells in the epidermis were determined morphologically. […] Acetone Formulation. […] Six hours after UVB, the animals were sacrificed and apoptotic sunburn cells in the epidermis were determined morphologically. […] […] Formulations. […] Six hours after UVB the animals were sacrificed and apoptotic sunburn cells in the epidermis were determined morphologically. […] Six hours after UVB the animals were sacrificed and apoptotic sunburn cells in the epidermis were determined morphologically.",
  "key": {"[1]": {"conditions": "Table 1, vs acetone group, 6.2 μmole x3 after UVB 30 mJ/cm^2, 6 h"}},
  "note": "Marks after values point to notes of the source that are not given here.",
  "data": [
    {"smiles": "Cn1c(=O)c2ncn(C)c2n(C)c1=O", "note": "[1,3,9-trimethylxanthine]", "values": [
      {"measurement": "activity in stimulating UVB-induced apoptosis in mouse skin, compared with caffeine", "value": "somewhat less active than caffeine"}
    ]},
    {"smiles": "Cn1c(=O)[nH]c2ncn(C)c2c1=O", "note": "[1,7-dimethylxanthine]", "values": [
      {"measurement": "activity in stimulating UVB-induced apoptosis in mouse skin, compared with caffeine", "value": "as active as caffeine"}
    ]},
    {"smiles": "Cn1c(=O)c2c(nc(Br)n2C)n(C)c1=O", "note": "[8-bromocaffeine]", "values": [
      {"measurement": "activity in stimulating UVB-induced apoptosis in mouse skin, compared with caffeine", "value": "little or no activity"}
    ]},
    {"smiles": "Cn1c(=O)c2c(nc(Cl)n2C)n(C)c1=O", "note": "[8-chlorocaffeine]", "values": [
      {"measurement": "activity in stimulating UVB-induced apoptosis in mouse skin, compared with caffeine", "value": "little or no activity"}
    ]},
    {"smiles": "Cn1c(=O)c2c(ncn2C)n(C)c1=O", "note": "[Caffeine Citrated, citrated caffeine]", "values": [
      {"measurement": "Percent Apoptotic Sunburn Cells", "setting": "mean ± S.E.", "value": "0.757 ± 0.199^b %"},
      {"measurement": "% Induction", "setting": "[1]", "value": 271, "unit": "%"}
    ]},
    {"smiles": "CC(=O)CCCCn1c(=O)c2c(ncn2C)n(C)c1=O", "note": "[Pentoxifylline, pentoxifylline]", "values": [
      {"measurement": "Percent Apoptotic Sunburn Cells", "setting": "mean ± S.E.", "value": "0.318 ± 0.068^ %"},
      {"measurement": "% Induction", "setting": "[1]", "value": 56, "unit": "%"},
      {"measurement": "activity in stimulating UVB-induced apoptosis in mouse skin, compared with caffeine", "value": "little or no activity"},
      {"measurement": "activity in stimulating UVB-induced apoptosis, compared with caffeine", "value": "about half as active as caffeine"}
    ]},
    {"smiles": "O=C([O-])c1ccccc1.[Na+]", "note": "[Sodium benzoate, sodium benzoate]", "values": [
      {"measurement": "Percent Sunburn Cells, UVB", "setting": "6.2 μmole (each) in 100 μL acetone:water (9:1) immediately after UVB 30 mJ/cm^2 and at 30 and 120 min, 6 h, mean ± S.E.", "value": "0.27 ± 0.08", "unit": "%"},
      {"measurement": "enhancement of UVB-induced apoptosis in the epidermis, applied in DERMABASE", "setting": "DERMABASE vehicle, equimolar amounts (Table 4)", "value": "inactive"},
      {"measurement": "% Induction", "setting": "Table 2, vs acetone, 6.2 μmole in acetone:water (9:1)", "value": 29, "unit": "%"}
    ]},
    {"smiles": "Cn1cnc2c1c(=O)[nH]c(=O)n2C", "note": "[Theobromine, 3,7-dimethylxanthine]", "values": [
      {"measurement": "Percent Apoptotic Sunburn Cells", "setting": "mean ± S.E.", "value": "0.358 ± 0.064^ %"},
      {"measurement": "% Induction", "setting": "[1]", "value": 75, "unit": "%"},
      {"measurement": "activity in stimulating UVB-induced apoptosis in mouse skin, compared with caffeine", "value": "little or no activity"},
      {"measurement": "activity in stimulating UVB-induced apoptosis, compared with caffeine", "value": "about half as active as caffeine"}
    ]},
    {"smiles": "Cn1c(=O)c2[nH]cnc2n(C)c1=O", "note": "[Theophylline, 1,3-dimethylxanthine]", "values": [
      {"measurement": "Percent Apoptotic Sunburn Cells", "setting": "mean ± S.E.", "value": "0.703 ± 0.171^b %"},
      {"measurement": "% Induction", "setting": "[1]", "value": 245, "unit": "%"},
      {"measurement": "activity in stimulating UVB-induced apoptosis in mouse skin, compared with caffeine", "value": "as active as caffeine"},
      {"measurement": "activity in stimulating UVB-induced apoptosis, compared with caffeine", "value": "somewhat more active than caffeine"}
    ]},
    {"smiles": "O=c1[nH]c(=O)c2[nH]cnc2[nH]1", "note": "[Xanthine, xanthine]", "values": [
      {"measurement": "Percent Apoptotic Sunburn Cells", "setting": "mean ± S.E.", "value": "0.221 ± 0.046^ %"},
      {"measurement": "% Induction", "setting": "[1]", "value": 8, "unit": "%"},
      {"measurement": "activity in stimulating UVB-induced apoptosis in mouse skin, compared with caffeine", "value": "little or no activity"}
    ]}
  ]
}
